Results reported in patent US20230027361A1, “METTL3 MODULATORS” (priority 2019, published 2023).
Where two headings read alike, the source gives them in different places.

What was measured:
METTL3/METTL14 = METTL3/METTL14 (Homo sapiens, UniProt Q86U44); assay: METTL3-14 Standard Enzyme Assay (METTL3 biochemical assay)
Procedure, shortened: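 METTL3/METTL14 at 2.5 nM, preincubated 5 min with compound in 20 mM HEPES pH 7.5, 50 mM KCl, 250 μM MgCl2, 1 mM DTT, at ambient temperature. Started with 100 nM 3′-biotinylated RNA and 100 nM ³H-SAM, quenched at 30 min with 15 μM cold SAM. Methylation read by scintillation on streptavidin flashplates.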

METTL1/WDR4 = METTL1/WDR4 (Homo sapiens, UniProt Q9UBP6); assay: METTL1 Assay (METTL1 biochemical assay)
Chain of METTL1/WDR4 (Q9UBP6 whole entry, species assumed): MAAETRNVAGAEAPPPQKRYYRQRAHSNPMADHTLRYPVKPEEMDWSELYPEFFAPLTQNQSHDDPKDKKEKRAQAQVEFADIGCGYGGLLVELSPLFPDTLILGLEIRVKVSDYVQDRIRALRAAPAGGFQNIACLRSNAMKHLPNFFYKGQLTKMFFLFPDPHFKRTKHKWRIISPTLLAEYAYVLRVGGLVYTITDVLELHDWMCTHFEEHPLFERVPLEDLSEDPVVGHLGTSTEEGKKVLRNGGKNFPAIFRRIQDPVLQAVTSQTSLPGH
Chain of METTL1/WDR4 (P57081 whole entry partner, species assumed): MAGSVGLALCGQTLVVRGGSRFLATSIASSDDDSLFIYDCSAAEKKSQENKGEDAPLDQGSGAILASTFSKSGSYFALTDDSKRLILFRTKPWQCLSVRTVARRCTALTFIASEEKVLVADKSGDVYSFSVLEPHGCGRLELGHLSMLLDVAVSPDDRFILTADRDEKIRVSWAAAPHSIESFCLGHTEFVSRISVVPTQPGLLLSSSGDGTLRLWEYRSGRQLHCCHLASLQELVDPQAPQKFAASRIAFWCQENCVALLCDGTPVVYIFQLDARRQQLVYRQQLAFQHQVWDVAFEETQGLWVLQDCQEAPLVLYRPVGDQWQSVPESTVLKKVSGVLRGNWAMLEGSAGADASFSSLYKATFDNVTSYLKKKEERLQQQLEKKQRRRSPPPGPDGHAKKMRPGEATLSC
Procedure, shortened: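 Radiometric methyltransfer by METTL1/WDR4 (6.25 nM f.c., 5 min preincubation) at ambient temperature in HEPES pH 7.5, KCl, MgCl2, DTT; started with 25 nM 3′-biotinylated RNA and 60 nM 3H-SAM, run 20 min, quenched with 15 μM cold SAM. Product captured on streptavidin flashplates (2 h, 25° C), counted by scintillation.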

METTL16 = molecular target: T1, METTL16 (Homo sapiens, UniProt Q86W50); assay: METTL16 Assay (METTL16 biochemical assay); conditions: read-out: METTL16 IC50
T1 sequence (Q86W50 1-562): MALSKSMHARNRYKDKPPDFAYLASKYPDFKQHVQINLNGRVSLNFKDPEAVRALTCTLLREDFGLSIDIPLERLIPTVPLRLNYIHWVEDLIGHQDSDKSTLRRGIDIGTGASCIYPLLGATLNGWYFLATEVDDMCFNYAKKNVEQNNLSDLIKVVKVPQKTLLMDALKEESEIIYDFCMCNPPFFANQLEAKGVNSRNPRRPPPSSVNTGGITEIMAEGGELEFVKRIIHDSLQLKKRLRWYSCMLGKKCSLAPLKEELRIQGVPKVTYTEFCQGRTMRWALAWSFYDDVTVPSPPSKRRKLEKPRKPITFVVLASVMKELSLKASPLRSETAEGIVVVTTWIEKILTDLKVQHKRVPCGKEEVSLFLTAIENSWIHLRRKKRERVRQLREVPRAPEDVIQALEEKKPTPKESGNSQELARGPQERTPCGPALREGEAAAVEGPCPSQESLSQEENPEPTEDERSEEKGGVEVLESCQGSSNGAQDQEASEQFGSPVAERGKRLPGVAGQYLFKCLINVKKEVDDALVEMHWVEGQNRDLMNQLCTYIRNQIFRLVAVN
Experimental: Assays were performed in a 25 μl-volume in 384-well V-bottom polypropylene microplates (Greiner Bio-One, cat. No. 781280) at ambient temperature. Optimized 1× assay buffer was 20 mM HEPES pH 7.5, 50 mM KCl, 1 mM DTT, 0.01% Tween, 0.01% BSG, 0.004 U/μl RNAseOUT (cat. No. 10777019, ThermoFisher Scientific, Waltham, Mass.). For compound screening METTL16 (final concentration, f.c.=100 nM) was added using a Multidrop Combi (ThermoFisher Scientific, Waltham, Mass.) and preincubated for 5 min. Reactions were started by adding 3′ biotinylated RNA ([…]-biotin) (f.c.=50 nM), 3H-SAM (f.c.=200 nM) and non-radiolabeled SAM (f.c.=800 nM) substrates. Reactions proceeded for 20 minutes and were quenched with excess non-radioactive SAM (f.c.=100 μM). The reactions were then transferred to streptavidin-coated flashplates and incubated for 2 hours at 25° C. Following two washing cycles with 0.1% Tween-20, the plates were sealed and read on a TopCount (PerkinElmer, Waltham, Mass.) plate-based scintillation counter. For determination of kinetic parameters, reaction times were optimized so that measurements were taken during the initial velocity phase of the reaction.

PRMT5-MEP50 = PRMT5-MEP50 (Homo sapiens, UniProt O14744); assay: PRMT5 Assay (PRMT5 biochemical assay)
Chain of PRMT5-MEP50 (O14744 whole entry): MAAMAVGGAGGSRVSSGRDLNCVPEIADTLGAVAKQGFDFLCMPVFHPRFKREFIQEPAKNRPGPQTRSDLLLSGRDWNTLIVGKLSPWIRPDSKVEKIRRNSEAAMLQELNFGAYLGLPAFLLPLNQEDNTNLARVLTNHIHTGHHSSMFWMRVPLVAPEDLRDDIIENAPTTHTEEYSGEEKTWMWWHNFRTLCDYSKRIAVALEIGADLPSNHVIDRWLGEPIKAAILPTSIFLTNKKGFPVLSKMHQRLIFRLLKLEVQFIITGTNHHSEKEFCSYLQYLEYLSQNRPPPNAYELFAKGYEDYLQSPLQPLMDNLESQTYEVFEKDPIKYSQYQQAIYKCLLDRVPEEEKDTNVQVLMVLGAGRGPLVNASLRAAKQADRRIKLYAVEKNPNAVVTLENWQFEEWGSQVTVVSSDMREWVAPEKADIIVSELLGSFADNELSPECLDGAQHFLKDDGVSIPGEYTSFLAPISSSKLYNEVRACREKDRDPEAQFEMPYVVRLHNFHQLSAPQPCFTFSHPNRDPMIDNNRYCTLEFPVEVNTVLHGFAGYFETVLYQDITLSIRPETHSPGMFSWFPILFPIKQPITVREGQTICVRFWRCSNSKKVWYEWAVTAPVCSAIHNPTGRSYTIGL
Chain of PRMT5-MEP50 (Q9BQA1 whole entry partner): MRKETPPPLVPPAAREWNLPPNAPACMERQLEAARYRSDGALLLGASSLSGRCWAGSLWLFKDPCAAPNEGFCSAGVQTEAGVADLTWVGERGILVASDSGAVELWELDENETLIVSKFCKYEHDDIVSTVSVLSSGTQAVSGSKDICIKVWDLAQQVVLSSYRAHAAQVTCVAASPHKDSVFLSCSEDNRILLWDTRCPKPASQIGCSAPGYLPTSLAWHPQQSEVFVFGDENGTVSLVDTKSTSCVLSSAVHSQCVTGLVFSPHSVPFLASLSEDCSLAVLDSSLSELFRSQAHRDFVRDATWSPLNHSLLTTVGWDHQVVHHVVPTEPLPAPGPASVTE
Procedure, shortened: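 PRMT5-MEP50 (2.5 nM final) preincubated 5 min with compound, then reacted 60 min at ambient temperature with 100 nM biotinylated N-acetyl histone H4 peptide and 250 nM 3H-SAM in 20 mM Tris-HCl pH 8.0, 1 mM DTT, 0.01% Tween. Quenched with 15 μM cold SAM; methylated peptide captured on streptavidin flashplates, scintillation counted.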

[1] = METTL3 biochemical assay; read-out: METTL3 IC50
[2] = read-out: METTL1 IC50, METTL1 biochemical assay
[3] = PRMT5 biochemical assay; read-out: PRMT5 IC50
[4] = read-out: METTL3 IC50; METTL3 biochemical assay
[5] = read-out: PRMT5 IC50; PRMT5 biochemical assay
[6] = METTL1 biochemical assay, read-out: METTL1 IC50

Chain of METTL3/METTL14 (Q86U44 whole entry, species assumed): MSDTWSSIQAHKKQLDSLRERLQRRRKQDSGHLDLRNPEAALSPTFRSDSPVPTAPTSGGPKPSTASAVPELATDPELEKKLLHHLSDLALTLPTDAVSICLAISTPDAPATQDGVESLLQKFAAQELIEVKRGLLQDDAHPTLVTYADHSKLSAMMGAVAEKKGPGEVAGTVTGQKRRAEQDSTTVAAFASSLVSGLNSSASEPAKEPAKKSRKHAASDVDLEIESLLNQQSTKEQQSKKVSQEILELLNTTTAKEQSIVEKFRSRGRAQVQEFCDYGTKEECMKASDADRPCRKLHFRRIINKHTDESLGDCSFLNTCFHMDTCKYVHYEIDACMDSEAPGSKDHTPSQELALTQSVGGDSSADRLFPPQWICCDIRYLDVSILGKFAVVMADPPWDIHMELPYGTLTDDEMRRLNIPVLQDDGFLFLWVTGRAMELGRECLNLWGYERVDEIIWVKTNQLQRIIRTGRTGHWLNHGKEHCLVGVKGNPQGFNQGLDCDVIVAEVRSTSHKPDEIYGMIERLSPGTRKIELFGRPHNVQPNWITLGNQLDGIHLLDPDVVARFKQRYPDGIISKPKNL
Chain of METTL3/METTL14 (Q9HCE5 whole entry partner, species assumed): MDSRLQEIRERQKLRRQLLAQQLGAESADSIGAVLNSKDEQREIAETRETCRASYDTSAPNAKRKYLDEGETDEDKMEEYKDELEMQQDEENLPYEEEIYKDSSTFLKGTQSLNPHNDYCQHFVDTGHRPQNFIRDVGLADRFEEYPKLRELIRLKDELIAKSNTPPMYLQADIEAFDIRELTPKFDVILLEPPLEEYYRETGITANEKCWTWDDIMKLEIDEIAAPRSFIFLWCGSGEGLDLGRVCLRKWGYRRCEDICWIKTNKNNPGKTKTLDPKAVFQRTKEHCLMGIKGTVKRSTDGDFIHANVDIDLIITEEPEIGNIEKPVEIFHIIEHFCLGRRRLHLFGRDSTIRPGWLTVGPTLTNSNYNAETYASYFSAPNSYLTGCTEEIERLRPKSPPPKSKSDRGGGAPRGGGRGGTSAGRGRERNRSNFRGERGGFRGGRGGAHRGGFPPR

| SMILES | IC50 (METTL3/METTL14; [1]) | IC50 (METTL1/WDR4; [2]) | IC50 (METTL16) | IC50 (PRMT5-MEP50; [3]) | IC50 (METTL3/METTL14; [4]) | IC50 (PRMT5-MEP50; [5]) | IC50 (METTL1/WDR4) | IC50 (METTL1/WDR4; [6]) |
| --- | --- | --- | --- | --- | --- | --- | --- | --- |
| CN(C)Cc1cccc(OC[C@H]2O[C@@H](n3cc(Br)c4c(N)ncnc43)[C@@H](F)[C@@H]2O)c1 [I-31] | > 1 µM | > 1 µM | > 1 µM | 0.1 to 1 µM | – | – | – | – |
| Nc1ncnc2c1ccn2[C@@H]1C[C@H](COc2ccc3ccc(N4CCCC4)nc3c2)[C@@H](O)[C@H]1O [I-82] | 0.1 to 1 µM | > 1 µM | > 1 µM | 0.1 to 1 µM | – | – | – | – |
| CNc1ccc2ccc(OC[C@H]3O[C@@H](n4cc(C5CCN(C)CC5)c5c(N)ncnc54)[C@@H](F)[C@@H]3O)cc2n1 [I-24] | 0.01 to 0.1 µM | > 1 µM | > 1 µM | 0.1 to 1 µM | – | – | – | – |
| CNc1ccc2ccc(OC[C@H]3O[C@@H](n4cc(C)c5c(N)ncnc54)[C@@H](F)[C@@H]3O)cc2n1 [I-44] | 0.01 to 0.1 µM | > 1 µM | > 1 µM | 0.01 to 0.1 µM | – | – | – | – |
| Nc1ncnc2c1ccn2[C@@H]1C[C@H](CCc2ccc3ccc(N4CCCC4)nc3c2)[C@@H](O)[C@H]1O [I-83] | 0.1 to 1 µM | > 1 µM | > 1 µM | 0.01 to 0.1 µM | – | – | – | – |
| CCc1cc(N)c2ccc(OC[C@H]3O[C@@H](n4cc(Br)c5c(N)ncnc54)[C@@H](F)[C@@H]3O)cc2n1 [I-18] | 0.01 to 0.1 µM | – | > 1 µM | 0.1 to 1 µM | – | – | – | – |
| Cn1ccnc1-c1ccc2ccc(OC[C@H]3O[C@@H](n4cc(Br)c5c(N)ncnc54)[C@@H](F)[C@@H]3O)cc2n1 [I-26] | > 1 µM | > 1 µM | > 1 µM | 0.1 to 1 µM | – | – | – | – |
| CNc1ccc2ccc(OC[C@H]3O[C@@H](n4cc(-c5cnn(C)c5)c5c(N)ncnc54)[C@@H](F)[C@@H]3O)cc2n1 [I-11] | – | – | > 1 µM | – | 0.01 to 0.1 µM | 0.1 to 1 µM | – | – |
| CCNc1ccc2ccc(OC[C@H]3C[C@@H](n4ccc5c(N)ncnc54)[C@H](O)[C@@H]3O)cc2n1 [I-81] | 0.01 to 0.1 µM | – | > 1 µM | < 0.01 µM | – | – | – | – |
| Cc1cc(N)c2ccc(OC[C@H]3O[C@@H](n4cc(C5CCCC5)c5c(N)ncnc54)[C@H](O)[C@@H]3O)cc2n1 [I-16] | 0.01 to 0.1 µM | – | > 1 µM | 0.01 to 0.1 µM | – | – | – | – |
| CNc1ccc2ccc(OC[C@H]3O[C@@H](n4cc(Br)c5c(N)nc(N)nc54)[C@@H](F)[C@@H]3O)cc2n1 [I-25] | 0.1 to 1 µM | > 1 µM | > 1 µM | 0.01 to 0.1 µM | – | – | – | – |
| Nc1nc2ccc(OC[C@H]3O[C@@H](n4cc(Br)c5c(N)ncnc54)[C@@H](F)[C@@H]3O)cc2[nH]1 [I-21] | 0.1 to 1 µM | > 1 µM | > 1 µM | 0.01 to 0.1 µM | – | – | – | – |
| CNc1ccc2ccc(OC[C@H]3O[C@@H](n4ccc5c(N)nc(C(=O)OC)nc54)[C@@H](F)[C@@H]3O)cc2n1 [I-223] | > 1 µM | – | > 1 µM | > 1 µM | – | – | > 1 µM | – |
| CNc1ccc2cc(OC[C@H]3O[C@@H](n4cc(Br)c5c(N)ncnc54)[C@H](O)[C@@H]3O)ccc2n1 [I-69] | 0.01 to 0.1 µM | – | > 1 µM | 0.01 to 0.1 µM | – | – | – | > 1 µM |
| CNc1ccc2ccc(OC[C@H]3O[C@@H](n4cc(C5=CCN(C)CC5)c5c(N)ncnc54)[C@@H](F)[C@@H]3O)cc2n1 [I-35] | 0.01 to 0.1 µM | > 1 µM | > 1 µM | 0.1 to 1 µM | – | – | – | – |
| Nc1ncnc2c1c(Br)cn2[C@@H]1O[C@H](COc2ccc3ccc(N4CCCC4)nc3c2)[C@@H](O)[C@H]1O [I-72] | 0.01 to 0.1 µM | > 1 µM | > 1 µM | 0.01 to 0.1 µM | – | – | – | – |

| SMILES | IC50 (METTL3/METTL14; [1]) | IC50 (METTL1/WDR4; [2]) | IC50 (METTL16) | IC50 (PRMT5-MEP50; [3]) | IC50 (METTL3/METTL14; [4]) | IC50 (PRMT5-MEP50; [5]) | IC50 (METTL1/WDR4) | IC50 (METTL1/WDR4; [6]) |
| --- | --- | --- | --- | --- | --- | --- | --- | --- |
| CNc1ccc2ccc(OC[C@H]3O[C@@H](n4cc(-c5ccnn5C)c5c(N)ncnc54)[C@@H](F)[C@@H]3O)cc2n1 [I-37] | – | – | > 1 µM | – | 0.01 to 0.1 µM | 0.1 to 1 µM | – | > 1 µM |
| CNc1ccc2ccc(OC[C@@H]3C[C@@H](O)[C@H](n4cc(C5CCCC5)c5c(N)ncnc54)O3)cc2n1 [I-141] | 0.1 to 1 µM | > 1 µM | > 1 µM | 0.1 to 1 µM | – | – | – | – |
| CCNc1ccc2ccc(OC[C@H]3O[C@@H](n4ccc5c(N)ncnc54)[C@H](O)[C@@H]3O)cc2n1 [I-67] | < 0.01 µM | > 1 µM | > 1 µM | < 0.01 µM | – | – | – | – |
| CNc1ccc2ccc(OC[C@H]3O[C@@H](n4cc(Br)c5c(N)nccc54)[C@@H](F)[C@@H]3O)cc2n1 [I-41] | 0.1 to 1 µM | > 1 µM | > 1 µM | 0.1 to 1 µM | – | – | – | – |
| CNc1ccc2ccc(OC[C@H]3O[C@@H](n4cc(C(F)(F)F)c5c(N)ncnc54)[C@@H](F)[C@@H]3O)cc2n1 [I-38] | 0.01 to 0.1 µM | > 1 µM | > 1 µM | 0.1 to 1 µM | – | – | – | – |
| Cc1cn2ccc(CC[C@H]3C[C@@H](n4ccc5c(N)ncnc54)[C@H](O)[C@@H]3O)cc2n1 [I-84] | > 1 µM | – | > 1 µM | < 0.01 µM | – | – | – | > 1 µM |
| CNc1ccc2ccc(OC[C@H]3C[C@@H](n4cc(C5CCCC5)c5c(N)ncnc54)C[C@@H]3O)cc2n1 [I-50] | 0.01 to 0.1 µM | > 1 µM | > 1 µM | 0.1 to 1 µM | – | – | – | – |
| Nc1ccc2ccc(OC[C@H]3O[C@@H](n4cc(Br)c5c(N)ncnc54)[C@H](O)[C@@H]3O)cc2n1 [I-71] | 0.01 to 0.1 µM | > 1 µM | > 1 µM | < 0.01 µM | – | – | – | – |
| CCNc1ccc2ccc(CC[C@H]3O[C@@H](n4ccc5c(N)ncnc54)[C@H](O)[C@@H]3O)cc2n1 [I-90] | 0.01 to 0.1 µM | – | > 1 µM | < 0.01 µM | – | – | – | – |
| CNc1ccc2ccc(OC[C@H]3O[C@@H](n4cc(C5CCN(C)C5)c5c(N)ncnc54)[C@@H](F)[C@@H]3O)cc2n1 (some centres unmarked) [I-17] | 0.01 to 0.1 µM | – | > 1 µM | 0.1 to 1 µM | – | – | – | – |
| Cc1cc(N)c2ccc(OC[C@H]3O[C@@H](n4cc(Br)c5c(N)ncnc54)[C@@H](F)[C@@H]3O)cc2n1 [I-27] | 0.01 to 0.1 µM | – | > 1 µM | 0.1 to 1 µM | – | – | – | – |
| Nc1cc(C2CC2)nc2cc(OC[C@H]3O[C@@H](n4cc(Br)c5c(N)ncnc54)[C@@H](F)[C@@H]3O)ccc12 [I-14] | 0.01 to 0.1 µM | – | > 1 µM | 0.1 to 1 µM | – | – | – | – |
| CNc1ccc2ccc(OC[C@H]3O[C@@H](n4cc(-c5cc(F)cc(F)c5)c5c(N)ncnc54)[C@@H](F)[C@@H]3O)cc2n1 [I-43] | – | – | > 1 µM | – | 0.1 to 1 µM | 0.1 to 1 µM | – | > 1 µM |
| CNc1ccc2ccc(OC[C@H]3O[C@@H](n4cc(-c5cccnc5)c5c(N)ncnc54)[C@@H](F)[C@@H]3O)cc2n1 [I-40] | – | – | > 1 µM | – | 0.01 to 0.1 µM | 0.1 to 1 µM | – | > 1 µM |
| CNc1ccc2ccc(OC[C@H]3O[C@@H](n4cc(C5=CCNC5)c5c(N)ncnc54)[C@@H](F)[C@@H]3O)cc2n1 [I-32] | 0.01 to 0.1 µM | > 1 µM | > 1 µM | 0.1 to 1 µM | – | – | – | – |
